Columns and labels:
[1] = target: EZH2 (Homo sapiens, UniProt Q15910); assay: EZH2 activity inhibition assay (rPRC2, 3H SAM, biotinylated oligonucleosomes, FlashPlate); assay type: biochemical; conditions: rPRC2, 2 nM EZH2, 0.2 μM 3H SAM, top concentration 80 μM
[2] = target: Y641N EZH2 (Homo sapiens, UniProt Q15910, Y641N); assay: Y641N EZH2 activity inhibition assay (as EZH2 assay, reconstituted H3K27Me2 oligonucleosomes as substrate); assay type: biochemical; conditions: Y641N EZH2 mutant enzyme
Y641N EZH2, sequence (Q15910 whole entry Y641N): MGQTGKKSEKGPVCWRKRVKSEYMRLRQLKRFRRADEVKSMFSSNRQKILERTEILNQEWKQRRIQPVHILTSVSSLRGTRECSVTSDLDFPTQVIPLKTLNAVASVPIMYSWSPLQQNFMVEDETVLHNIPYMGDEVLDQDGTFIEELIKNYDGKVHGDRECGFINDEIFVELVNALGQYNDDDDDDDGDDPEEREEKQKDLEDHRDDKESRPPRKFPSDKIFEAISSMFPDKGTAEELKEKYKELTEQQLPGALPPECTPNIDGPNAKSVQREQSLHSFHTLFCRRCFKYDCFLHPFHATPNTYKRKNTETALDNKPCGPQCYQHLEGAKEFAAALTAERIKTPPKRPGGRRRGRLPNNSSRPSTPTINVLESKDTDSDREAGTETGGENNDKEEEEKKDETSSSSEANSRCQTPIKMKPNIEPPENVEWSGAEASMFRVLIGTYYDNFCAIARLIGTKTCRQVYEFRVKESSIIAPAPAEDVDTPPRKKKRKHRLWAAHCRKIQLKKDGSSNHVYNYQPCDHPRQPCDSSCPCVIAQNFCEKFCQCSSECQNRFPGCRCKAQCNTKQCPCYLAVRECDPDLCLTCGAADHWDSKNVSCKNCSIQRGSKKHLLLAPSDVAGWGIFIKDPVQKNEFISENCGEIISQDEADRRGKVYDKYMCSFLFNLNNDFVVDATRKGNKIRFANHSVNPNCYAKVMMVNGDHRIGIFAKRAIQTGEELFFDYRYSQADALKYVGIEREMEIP
Y641N EZH2, sequence (O75530 whole entry partner): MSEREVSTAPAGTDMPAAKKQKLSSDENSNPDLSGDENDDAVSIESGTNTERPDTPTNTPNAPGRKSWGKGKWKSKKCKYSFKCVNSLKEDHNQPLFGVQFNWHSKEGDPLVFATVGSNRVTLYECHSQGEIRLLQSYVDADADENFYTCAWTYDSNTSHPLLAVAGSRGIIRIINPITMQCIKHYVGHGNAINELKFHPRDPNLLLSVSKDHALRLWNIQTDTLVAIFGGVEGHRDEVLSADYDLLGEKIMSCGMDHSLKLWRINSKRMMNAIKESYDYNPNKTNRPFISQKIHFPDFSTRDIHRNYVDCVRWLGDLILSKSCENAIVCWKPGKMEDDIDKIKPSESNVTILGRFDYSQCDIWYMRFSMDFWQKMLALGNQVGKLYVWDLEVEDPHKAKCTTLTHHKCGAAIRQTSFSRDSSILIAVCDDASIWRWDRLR
Y641N EZH2, sequence (Q15022 whole entry partner): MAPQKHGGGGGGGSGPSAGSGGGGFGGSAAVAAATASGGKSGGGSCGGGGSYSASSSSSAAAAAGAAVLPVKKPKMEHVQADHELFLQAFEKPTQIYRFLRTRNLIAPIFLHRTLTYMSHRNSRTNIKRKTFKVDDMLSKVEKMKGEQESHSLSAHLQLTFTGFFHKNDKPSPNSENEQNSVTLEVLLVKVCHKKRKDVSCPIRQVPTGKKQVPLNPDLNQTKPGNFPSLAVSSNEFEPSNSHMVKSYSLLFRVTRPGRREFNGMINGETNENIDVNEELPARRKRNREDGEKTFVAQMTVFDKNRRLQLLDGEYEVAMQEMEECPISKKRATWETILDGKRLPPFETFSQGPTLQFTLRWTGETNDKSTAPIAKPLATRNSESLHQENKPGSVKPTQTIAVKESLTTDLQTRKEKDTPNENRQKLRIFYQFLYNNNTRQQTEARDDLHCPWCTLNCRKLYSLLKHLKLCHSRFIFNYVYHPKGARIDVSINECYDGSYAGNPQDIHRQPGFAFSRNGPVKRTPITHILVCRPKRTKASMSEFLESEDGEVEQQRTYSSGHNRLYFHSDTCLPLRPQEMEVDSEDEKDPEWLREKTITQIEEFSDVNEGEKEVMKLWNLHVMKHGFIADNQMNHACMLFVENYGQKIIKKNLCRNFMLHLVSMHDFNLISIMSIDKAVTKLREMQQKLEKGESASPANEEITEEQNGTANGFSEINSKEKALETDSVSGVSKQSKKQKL

EZH2, sequence (Q15910 whole entry): as the sequence (Q15910 whole entry Y641N) above, with N641Y counted along it
EZH2, sequence (O75530 whole entry partner): as the sequence (O75530 whole entry partner) above
EZH2, sequence (Q15022 whole entry partner): as the sequence (Q15022 whole entry partner) above

| IC50 [1] [µM] | IC50 [2] [µM] | SMILES |
| --- | --- | --- |
| < 1 | < 1 | Cc1cc(C)c(CNC(=O)c2ccc([C@H](C)Oc3cccc(-c4ccc(N)nc4)c3)cc2)c(=O)[nH]1 [Compound I-69] |
| 10 to 50 | > 80 | Cc1cc(C)c(CNC(=O)c2ccc(C(C)Oc3ncccn3)cc2)c(=O)[nH]1 (stereo not shown) [Compound I-76, N-((2-hydroxy-4,6-dimethylpyridin-3-yl)methyl)-4-(1-(pyrimidin-2-yloxy)ethyl)benzamide] |
| 1 to 10 | > 80 | Cc1cc(C)c(CNC(=O)c2ccc(C(C)Oc3cccnc3)nc2)c(=O)[nH]1 (stereo not shown) [Compound I-78, N-((2-hydroxy-4,6-dimethylpyridin-3-yl)methyl)-6-(1-(pyridin-3-yloxy)ethyl)nicotinamide] |
| 10 to 50 | > 80 | Cc1cc(C)c(CNC(=O)c2cnc(Oc3ccccc3)nc2)c(=O)[nH]1 [Compound I-79, N-((2-hydroxy-4,6-dimethylpyridin-3-yl)methyl)-2-phenoxypyrimidine-5-carboxamide] |
| 1 to 10 | 10 to 50 | Cc1cc(C)c(CNC(=O)c2ccc(CN3CCCCC3)cc2C)c(=O)[nH]1 [Compound I-80, N-((2-hydroxy-4,6-dimethylpyridin-3-yl)methyl)-2-methyl-4-(piperidin-1-ylmethyl)benzamide] |
| 1 to 10 | 10 to 50 | Cc1cc(C)c(CNC(=O)c2ccc(C(C)N3CCCCC3)cc2)c(=O)[nH]1 (stereo not shown) [Compound I-81] |
| < 1 | 1 to 10 | Cc1cc(C)c(CNC(=O)c2ccc(C3CCOC3)cc2)c(=O)[nH]1 (stereo not shown) [Compound I-83, N-((2-hydroxy-4,6-dimethylpyridin-3-yl)methyl)-4-(tetrahydrofuran-3-yl)benzamide] |
| 1 to 10 | 10 to 50 | Cc1cc(C)c(CNC(=O)c2ccc(C3CCCO3)cc2)c(=O)[nH]1 (stereo not shown) [Compound I-84, N-((2-hydroxy-4,6-dimethylpyridin-3-yl)methyl)-4-(tetrahydrofuran-2-yl)benzamide] |
| < 1 | 1 to 10 | Cc1cc(C)c(CNC(=O)c2ccc(C(C)OC3CCCCC3)cc2)c(=O)[nH]1 (stereo not shown) [Compound I-85, 4-(1-(cyclohexyloxy)ethyl)-N-((2-hydroxy-4,6-dimethylpyridin-3-yl)methyl)benzamide] |
| < 1 | 1 to 10 | Cc1cc(C)c(CNC(=O)c2ccc(C3CCCC3)cc2)c(=O)[nH]1 [Compound I-86, 4-cyclopentyl-N-((2-hydroxy-4,6-dimethylpyridin-3-yl)methyl)benzamide] |
| 1 to 10 | 1 to 10 | Cc1cc(C)c(CNC(=O)c2ccc(C(C)N3CCCCC3)cc2C)c(=O)[nH]1 (stereo not shown) [Compound I-87, N-((2-hydroxy-4,6-dimethylpyridin-3-yl)methyl)-2-methyl-4-(1-(piperidin-1-yl)ethyl)benzamide] |
| 1 to 10 | > 80 | Cc1cc(C)c(CNC(=O)c2ccc(C(C)N3CCCCC3=O)cc2)c(=O)[nH]1 (stereo not shown) [Compound I-88, N-((2-hydroxy-4,6-dimethylpyridin-3-yl)methyl)-4-(1-(2-oxopiperidin-1-yl)ethyl)benzamide] |
| 1 to 10 | > 80 | Cc1cc(C)c(CNC(=O)c2ccc(CN3CCN(CCO)CC3)cc2)c(=O)[nH]1 [Compound I-89, N-((4,6-dimethyl-2-oxo-1,2-dihydropyridin-3-yl)methyl)-4-((4-(2-hydroxyethyl)piperazin-1-yl)methyl)benzamide] |
| < 1 | > 80 | Cc1cc(C)c(CNC(=O)c2ccc(C(C)COc3ccccc3)cc2)c(O)n1 (stereo not shown) [Compound I-116, N-((2-hydroxy-4,6-dimethylpyridin-3-yl)methyl)-4-(1-phenoxypropan-2-yl)benzamide] |
| < 1 | 1 to 10 | Cc1cc(C)c(CNC(=O)c2ccc(C(C)Oc3ccncn3)cc2)c(=O)[nH]1 (stereo not shown) [Compound I-155, N-((2-hydroxy-4,6-dimethylpyridin-3-yl)methyl)-4-(1-(pyrimidin-4-yloxy)ethyl)benzamide] |
| > 80 | > 80 | Cc1c[nH]c(=O)c(CNC(=O)c2ccc(C(C)Oc3ccccc3)cc2)c1 (stereo not shown) [Compound I-156] |

| IC50 [1] [µM] | IC50 [2] [µM] | SMILES |
| --- | --- | --- |
| > 80 | > 80 | Cc1cc(CNC(=O)c2ccc(C(C)Oc3ccccc3)cc2)c(=O)[nH]c1C (stereo not shown) [Compound I-157] |
| > 80 | > 80 | Cc1cc(C)c(CNC(=O)c2ccc(Oc3ccccc3)nn2)c(=O)[nH]1 [Compound I-158] |
| > 80 | > 80 | Cc1cc(C)c(CNC(=O)c2ncc(Oc3ccccc3)cn2)c(=O)[nH]1 [Compound I-159] |
| 1 to 10 | > 80 | Cc1cc(C)c(CNC(=O)c2ccc([C@@H](C)Oc3ccccc3C#N)cc2)c(=O)[nH]1 [Compound I-162] |
| < 1 | < 1 | Cc1cc(C)c(CNC(=O)c2ccc([C@H](C)Oc3ccccc3C#N)cc2)c(=O)[nH]1 [Compound I-163] |
| 1 to 10 | > 80 | Cc1cc(C)c(CNC(=O)c2ccc([C@@H](C)Oc3cccc(C#N)c3)cc2)c(=O)[nH]1 [Compound I-168] |
| < 1 | < 1 | Cc1cc(C)c(CNC(=O)c2ccc([C@H](C)Oc3cccc(C#N)c3)cc2)c(=O)[nH]1 [Compound I-169] |
| > 80 | > 80 | O=C(NCc1ccc(-c2ccccc2)[nH]c1=O)c1ccc(Oc2ccccc2)cc1 [Compound I-170] |
| 10 to 50 | 10 to 50 | O=C(NCc1cc2c([nH]c1=O)CCC2)c1ccc(Oc2ccccc2)cc1 [Compound I-178, N-((2-oxo-2,5,6,7-tetrahydro-1H-cyclopenta[b]pyridin-3-yl)methyl)-4-phenoxybenzamide] |
| > 50 | > 80 | O=C(NCc1cc2c([nH]c1=O)CCCC2)c1ccc(Oc2ccccc2)cc1 [Compound I-179] |
| 1 to 10 | > 80 | Cc1cc(C)c(CNC(=O)c2ccc(C(C)Oc3ccccc3)nn2)c(=O)[nH]1 (stereo not shown) [Compound I-182, N-((2-hydroxy-4,6-dimethylpyridin-3-yl)methyl)-6-(1-phenoxyethyl)pyridazine-3-carboxamide] |
| 1 to 10 | > 80 | Cc1cc(C)c(CNC(=O)c2ccc(C(CO)Oc3ccccc3)cc2)c(=O)[nH]1 (stereo not shown) [Compound I-183, 4-(2-hydroxy-1-phenoxyethyl)-N-((2-hydroxy-4,6-dimethylpyridin-3-yl)methyl)benzamide] |
| < 1 | 1 to 10 | Cc1cc(C)c(CNC(=O)c2ccc(C(C)OC3CCOC3)cc2)c(=O)[nH]1 (stereo not shown) [Compound I-184, N-((2-hydroxy-4,6-dimethylpyridin-3-yl)methyl)-4-(1-(tetrahydrofuran-3-yloxy)ethyl)benzamide] |
| < 1 | 1 to 10 | Cc1cc(C)c(CNC(=O)c2ccc(C(C)OC3CCOCC3)cc2)c(=O)[nH]1 (stereo not shown) [Compound I-192] |
| > 80 | > 80 | COCC(Oc1ccccc1)c1ccc(C(=O)NCc2c(C)cc(C)[nH]c2=O)cc1 (stereo not shown) [Compound I-193] |
| < 1 | > 80 | CNc1cc(C)[nH]c(=O)c1CNC(=O)c1ccc(Oc2ccccc2)cc1 [Compound I-194, N-((2-hydroxy-6-methyl-4-(methylamino)pyridin-3-yl)methyl)-4-phenoxybenzamide] |
